From PMC3605901 (Bioorganic & medicinal chemistry, 2013)
≈ marks a conversion by molar mass, not a printed value. Entries after “also recorded” stand apart in the source; their conditions may differ. Read-outs that look alike come from different tables or passages of the source.

Experiments:
[1] = Microsomal stability assay; conditions: for MLM t1/2: half-life of parent compound during incubation with mouse liver microsomes, 1 μM, 0.5 mg/mL, NADPH; for half-life at 1 μM: mouse, microsomes
[2] = target: streptokinase (SK) expression in GAS strain UMAA2616; assay: microbe, parasite or virus in culture; assay type: cell-based, Streptococcus pyogenes (Group A Streptococcus); conditions: for IC50: read-out: IC50 (SK activity)
[3] = system: S. aureus biofilm formation; assay: Biofilm formation, plate-based OD assay; assay type: cell-based, Staphylococcus aureus; conditions: reported in greater detail in ref 28
[4] = Aqueous; conditions: for Aq. Sol.: kinetic solubility in aqueous Todd Hewitt (THY) bacterial media, 37°C
[5] = system: GAS strain UMAA2616; assay: microbe, parasite or virus in culture; assay type: cell-based, Streptococcus pyogenes (Group A Streptococcus); conditions: Streptococcus pyogenes, UMAA2616, read-out: 50 μM Growth T/C
[6] = system: HeLa cells; assay: Mammalian cytotoxicity assay; assay type: cell-based; conditions: up to 100 μM, the highest concentration tested; 24 hours
[7] = system: GAS infection; conditions: transgenic mouse model of GAS infection; cited from earlier work
[8] = full dose-response titration, approximate IC50

2-(ethylthio)-9-methoxy-5,5-dimethyl-3-(2,2,2-trifluoroethyl)-5,6-dihydrobenzo[h]quinazolin-4(3H)-one [19b]
MLM t1/2 [1]: 3.0 min

3-Allyl-2-(allylthio)-8-methoxy-5,5-dimethyl-5,6-dihydrobenzo[h]quinazolin-4(3H)-one [12k]
IC50 [2, 8]: 6.9 ± 0.3 µM | S. aureus biofilm inhibition [3]: potent S. aureus biofilm inhibitors | MLM t1/2 [1]: 0.6 min | Aq. Sol. [4]: 14.5 ± 3.5 µM

C=CCn1c(SCCOC)nc2c(c1=O)C1(CCCCC1)Cc1ccccc1-2 [6d, 3-allyl-2-((2-methoxyethyl)thio)-3H-spiro[benzo[h]quinazoline-5,1′-cyclohexan]-4(6H)-one]
activity at 50 µM [5]: 99 ± 10%

C=CCn1c(SCC#N)nc2c(c1=O)C(C)(C)Cc1ccccc1-2 [12g, 2-((3-allyl-5,5-dimethyl-4-oxo-3,4,5,6-tetrahydrobenzo[h]quinazolin-2-yl)thio)acetonitrile]
activity at 50 µM [5]: 100 ± 3% | solubility at 5 min [4]: 3 ± 1 µM (≈ 1.01 µg/mL)

3-allyl-2-(ethylthio)-8-methoxy-5,5-dimethyl-5,6-dihydrobenzo[h]quinazolin-4(3H)-one [12c]
IC50 [2, 8]: 3.1 ± 0.7 µM | Inhibition of HeLa cell growth [6]: ≤ 35% | S. aureus biofilm inhibition [3]: potent S. aureus biofilm inhibitors | MLM t1/2 [1]: 0.8 min | Aq. Sol. [4]: 14.5 ± 3.5 µM

C=CCn1c(SCCOC)nc2c(c1=O)C(C)(C)Cc1ccccc1-2 [12h, 3-allyl-2-((2-methoxyethyl)thio)-5,5-dimethyl-5,6-dihydrobenzo[h]quinazolin-4(3H)-one]
activity at 50 µM [5]: 86 ± 10% | Inhibition of HeLa cell growth [6]: ≤ 35%

C=CCn1c(SCC(F)(F)F)nc2c(c1=O)C(C)(C)Cc1ccc(OC)cc1-2 [12l, 3-allyl-9-methoxy-5,5-dimethyl-2-((2,2,2-trifluoroethyl)thio)-5,6-dihydrobenzo[h]quinazolin-4(3H)-one]
activity at 50 µM [5]: 86 ± 7% | half-life at 1 μM [1]: 4.8 min

C=CCn1c(SC)nc2c(c1=O)C1(CCCCC1)Cc1ccccc1-2 [6f, 3-allyl-2-(methylthio)-3H-spiro[benzo[h]quinazoline-5,1′-cyclohexan]-4(6H)-one]
activity at 50 µM [5]: 98 ± 3%

CCn1c(SCc2ccccc2)nc2c(c1=O)C1(CCCC1)Cc1ccccc1-2 [compound 28]
activity at 50 µM [5]: 107 ± 4%

CCn1c(SCCOC)nc2c(c1=O)C(C)(C)Cc1ccccc1-2 [12i, 3-ethyl-2-((2-methoxyethyl)thio)-5,5-dimethyl-5,6-dihydrobenzo[h]quinazolin-4(3H)-one]
activity at 50 µM [5]: 39 ± 15%

4-(allyloxy)-2-(ethylthio)-9-methoxy-5,5-dimethyl-5,6-dihydrobenzo[h]quinazoline [20c]
MLM t1/2 [1]: 8.3 min

C=CCn1c(SCCCC)nc2c(c1=O)C1(CCCCC1)Cc1ccccc1-2 [compound 1, 3-allyl-2-(butylthio)-3H-spiro[benzo[h]quinazoline-5,1′-cyclohexan]-4(6H)-one]
% of plasmin activity at 50 μM [2]: 48 ± 28% | IC50 ([2]; Streptococcus pyogenes): > 50 µM | activity at 50 µM [5]: 95 ± 8% | Inhibition of HeLa cell growth [6]: ≤ 35% | Efficacy in mouse models of GAS infection [7]: displayed efficacy; also recorded: significant protective effect | Fold higher stability to oxidation in MLM (comparison of t1/2) ([1]; 1 vs 6b, O-alkylated vs N-alkylated counterparts): more than 60 fold | solubility at 5 min [4]: 2 ± 1 µM (≈ 0.789 µg/mL)

C=CCn1c(SCCN(C)C)nc2c(c1=O)C1(CCCCC1)Cc1ccccc1-2 [6e, 3-allyl-2-((2-(dimethylamino)ethyl)thio)-3H-spiro[benzo[h]quinazoline-5,1′-cyclohexan]-4(6H)-one]
activity at 50 µM [5]: 88 ± 20%

C=CCn1c(SCc2ccccc2)nc2c(c1=O)C1(CCCCC1)Cc1ccccc1-2 [6b, 3-allyl-2-(benzylthio)-3H-spiro[benzo[h]quinazoline-5,1′-cyclohexan]-4(6H)-one]
IC50 ([2]; Streptococcus pyogenes): > 50 µM | activity at 50 µM [5]: 96 ± 6%

COCCSc1nc2c(c(=O)n1CCc1ccc(OC)cc1)C(C)(C)Cc1ccccc1-2 [19a, 2-((2-Methoxyethyl)thio)-3-(4-methoxyphenethyl)-5,5-dimethyl-5,6-dihydrobenzo[h]quin-azolin-4(3H)-one]
Inhibition of HeLa cell growth [6]: ≤ 35%

C=CCn1c(SCc2ccccc2)nc2c(c1=O)C(C)(C)Cc1ccccc1-2 [compound 29]
activity at 50 µM [5]: 103 ± 3% | Inhibition of HeLa cell growth [6]: ≤ 35%

3-Allyl-2-(ethylthio)-8-isopropoxy-5,5-dimethyl-5,6-dihydrobenzo[h]quinazolin-4(3H)-one [17f]
IC50 [2, 8]: 4.1 ± 0.7 µM | Aq. Sol. [4]: 14.5 ± 3.5 µM

C=CCn1c(OCC)nc2c(c1=O)C1(CCCCC1)Cc1ccccc1-2 [7a, 3-allyl-2-ethoxy-3H-spiro[benzo[h]quinazoline-5,1′-cyclohexan]-4(6H)-one]
activity at 50 µM [5]: 102 ± 9%

C=CCn1c(S(=O)(=O)CC)nc2c(c1=O)C(C)(C)Cc1ccc(OC)cc1-2 [compound 15, 3-allyl-2-(ethylsulfonyl)-9-methoxy-5,5-dimethyl-5,6-dihydrobenzo[h]quinazolin-4(3H)-one]
activity at 50 µM [5]: 103 ± 3% | half-life at 1 μM [1]: 3.8 min

CCSc1nc2c(c(=O)n1C)C(C)(C)Cc1ccc(OC)cc1-2 [12m, 2-(ethylthio)-9-methoxy-3,5,5-trimethyl-5,6-dihydrobenzo[h]quinazolin-4(3H)-one]
activity at 50 µM [5]: 83 ± 15% | half-life at 1 μM [1]: 1.7 min

C=CCn1c([S+]([O-])CC)nc2c(c1=O)C(C)(C)Cc1ccc(OC)cc1-2 (stereo not drawn) [compound 14, 3-allyl-2-(ethylsulfinyl)-9-methoxy-5,5-dimethyl-5,6-dihydrobenzo[h]quinazolin-4(3H)-one]
activity at 50 µM [5]: 101 ± 5% | half-life at 1 μM [1]: 2.8 min

C=CCn1c(OCC)nc2c(c1=O)C(C)(C)Cc1ccccc1-2 [13a, 3-allyl-2-ethoxy-5,5-dimethyl-5,6-dihydrobenzo[h]quinazolin-4(3H)-one]
activity at 50 µM [5]: 50 ± 23%

3-allyl-2-(ethylthio)-9-methoxy-5,5-dimethyl-2,3,5,6-tetrahydrobenzo[h]quinazolin-4(1H)-one [12a]
Fold improvement in potency (IC50) over 1 [2]: greater than 35 fold | Reduction in streptokinase activity at 5 μM [2]: 90% | IC50 [2, 8]: 1.3 ± 0.6 µM | Inhibition of HeLa cell growth [6]: ≤ 35% | MLM t1/2 [1]: 2.3 min | Aq. Sol. [4]: 9 ± 2 µM

C=CCn1c(SCc2ccccn2)nc2c(c1=O)C(C)(C)Cc1ccccc1-2 [12e, 3-allyl-5,5-dimethyl-2-((pyridin-2-ylmethyl)thio)-5,6-dihydrobenzo[h]quinazolin-4(3H)-one]
activity at 50 µM [5]: 105 ± 2%

2-((2-Methoxyethyl)thio)-4-(4-methoxyphenethoxy)-5,5-dimethyl-5,6-dihydrobenzo[h]quinazoline [20a]
IC50 [2, 8]: 5.5 ± 0.7 µM | Inhibition of HeLa cell growth [6]: ≤ 35% | MLM t1/2 [1]: 45.1 min

C=CCn1c(NCC)nc2c(c1=O)C1(CCCCC1)Cc1ccccc1-2 [7b, 3-allyl-2-(ethylamino)-3H-spiro[benzo[h]quinazoline-5,1′-cyclohexan]-4(6H)-one]
activity at 50 µM [5]: 32 ± 18%

C=CCn1c(SCCO)nc2c(c1=O)C(C)(C)Cc1ccccc1-2 [12f, 3-allyl-2-((2-hydroxyethyl)thio)-5,5-dimethyl-5,6-dihydrobenzo[h]quinazolin-4(3H)-one]
activity at 50 µM [5]: 6 ± 3%

C=CCn1c(SCC(N)=O)nc2c(c1=O)C(C)(C)Cc1ccccc1-2 [12d, 2-((3-allyl-5,5-dimethyl-4-oxo-3,4,5,6-tetrahydrobenzo[h]quinazolin-2-yl)thio)acetamide]
activity at 50 µM [5]: 100 ± 2%

2-(ethylthio)-9-methoxy-5,5-dimethyl-4-(2,2,2-trifluoroethoxy)-5,6-dihydrobenzo[h]quinazoline [20b]
MLM t1/2 [1]: 45.5 min

C=CCn1c(SCC)nc2c(c1=O)C(C)(C)Cc1ccccc1-2 [compound 30]
activity at 50 µM [5]: 89 ± 5%

C=CCn1c(NCC)nc2c(c1=O)C(C)(C)Cc1ccccc1-2 [13b, 3-allyl-2-(ethylamino)-5,5-dimethyl-5,6-dihydrobenzo[h]quinazolin-4(3H)-one]
activity at 50 µM [5]: 6 ± 3%

C=CCn1c(SCC(=O)OCC)nc2c(c1=O)C(C)(C)Cc1ccccc1-2 [compound 31]
activity at 50 µM [5]: 101 ± 2%

C=CCn1c(SCc2ccc(NC(C)=O)cc2)nc2c(c1=O)C1(CCCCC1)Cc1ccccc1-2 [6c, N-(4-(((3-allyl-4-oxo-4,6-dihydro-3H-spiro[benzo[h]quinazoline-5,1′-cyclohexan]-2-yl)thio)methyl)phenyl)acetamide]
activity at 50 µM [5]: 96 ± 14%

C=CCn1c(SCc2ccc(OC)cc2)nc2c(c1=O)C1(CCCCC1)Cc1ccccc1-2 [6a, 3-allyl-2-((4-methoxybenzyl)thio)-3H-spiro[benzo[h]quinazoline-5,1′-cyclohexan]-4(6H)-one]
activity at 50 µM [5]: 105 ± 6%
